Test [1] relates to MCF7. Nature of the test: Antiproliferative activity against ER positive human MCF7 cells after 48 hrs by MTT assay. The following applies: MCF7, 48 h. In kind it is functional, cell-based. In general terms: Tetrazolium assays rely on reduction of a dye to a coloured formazan, in cell work by metabolically active cells.
In the next test the test system is Ishikawa. Nature of the test: Antiproliferative activity against human Ishikawa cells after 48 hrs by MTT assay. Type of test: functional, cell-based.
The test system of test [2] is MCF7. Nature of the test: Potency index, ratio of tamoxifen IC50 to compound IC50 against human MCF7 cells. Type of test: functional.
Test [3] addresses T1, Estrogen receptor (Homo sapiens) (UniProt P03372).
T1 sequence (whole entry): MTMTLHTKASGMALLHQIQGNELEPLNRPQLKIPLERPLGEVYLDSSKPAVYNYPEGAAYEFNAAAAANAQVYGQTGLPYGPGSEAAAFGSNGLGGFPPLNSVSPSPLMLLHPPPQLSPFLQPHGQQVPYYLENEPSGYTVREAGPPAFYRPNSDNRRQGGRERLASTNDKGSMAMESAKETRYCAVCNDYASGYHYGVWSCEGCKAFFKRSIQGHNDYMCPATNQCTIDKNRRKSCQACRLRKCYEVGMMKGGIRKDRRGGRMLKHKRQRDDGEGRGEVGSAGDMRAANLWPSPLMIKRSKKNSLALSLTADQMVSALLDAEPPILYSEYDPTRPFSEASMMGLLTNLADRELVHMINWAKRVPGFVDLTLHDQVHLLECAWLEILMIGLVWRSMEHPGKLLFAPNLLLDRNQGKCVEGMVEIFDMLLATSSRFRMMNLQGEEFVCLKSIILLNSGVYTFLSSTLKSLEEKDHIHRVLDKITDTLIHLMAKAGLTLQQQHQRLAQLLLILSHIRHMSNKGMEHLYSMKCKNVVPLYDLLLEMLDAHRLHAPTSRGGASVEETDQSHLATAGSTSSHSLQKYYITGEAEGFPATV
Nature of the test: Displacement of fluoromone from full length recombinant human estrogen receptor alpha expressed in Spodoptera frugiperda at 100 uM measured after 2 hrs by fluorescence polarization assay relative to control. In general terms: In fluorescence polarisation assays a small probe gives low polarisation when free and higher when bound to something large.

In general, IC50 refers to the midpoint of a concentration-inhibition curve. A higher IC50 goes with a need for much substance.

On to `CC/C(=C(\c1ccccc1)c1ccc(OCCN(C)C)cc1)c1ccccc1` [TAMOXIFEN], for which the midpoint of inhibition in the test with MCF7 [1], the IC50, lay at 11.3 µM.

On to `COc1ccc(-c2c(Nc3ccc(OCCN(C)C)cc3)c3ccccc3oc2=O)cc1`, for which the IC50 is 8.76 µM in the test on MCF7 [1] and 11.8 µM in the test with Ishikawa.

Take `COc1ccc(-c2c(Nc3ccc(OCCN(C)C)cc3)c3ccc(OC)cc3oc2=O)cc1`: the IC50 stood at 8.32 µM with MCF7 [1] and 12.2 µM in the test on Ishikawa.

Consider `COc1ccc(-c2c(Nc3ccc(OCCN4CCN(C)CC4)cc3)c3ccc(O)cc3oc2=O)cc1`, for which the half-inhibitory concentration (IC50) is 17.6 µM in the test on MCF7 [1] and 19.4 µM in the test with Ishikawa.

Turning to `COc1ccc(-c2c(Nc3ccc(OCCN4CCCCC4)cc3)c3ccc(OC)cc3oc2=O)cc1`, the half-inhibitory concentration (IC50) amounted to 4.52 µM with MCF7 [1] and 11.6 µM with Ishikawa. Moreover, the “Ratio IC50” value in the test on MCF7 [2] was determined as 3.

`CCN(CC)CCOc1ccc(Nc2c(-c3ccc(OC)cc3)c(=O)oc3ccccc23)cc1`: the IC50 in the test on MCF7 [1] was 7.57 µM; in the test with Ishikawa, 10.8 µM.

With `COc1ccc(-c2c(Nc3ccc(OCCN4CCOCC4)cc3)c3ccc(O)cc3oc2=O)cc1`, the concentration for half-maximal inhibition (IC50) with MCF7 [1] and in the test on Ishikawa was more than 100 µM each time.

On to `COc1ccc(-c2c(Nc3ccc(OCCN4CCCC4)cc3)c3ccccc3oc2=O)cc1`, for which the IC50 in the test with MCF7 [1] came to 6.21 µM; in the test with Ishikawa, 9.3 µM.

With `CCN(CC)CCOc1ccc(Nc2c(-c3ccc(OC)cc3)c(=O)oc3cc(O)ccc23)cc1`, the IC50 is 8.81 µM in the test with MCF7 [1] and 14.8 µM in the test on Ishikawa.

On to `COc1ccc(-c2c(Nc3ccc(OCCN4CCCCC4)cc3)c3ccc(O)cc3oc2=O)cc1`, for which the half-maximal inhibitory concentration (IC50) with MCF7 [1] worked out at 7.31 µM; with Ishikawa, 8.43 µM.

With `COc1ccc(-c2c(Nc3ccc(OCCN4CCN(C)CC4)cc3)c3ccccc3oc2=O)cc1`, the results for the IC50 in the test with MCF7 [1] and in the test on Ishikawa were 15.6 µM and 23.4 µM, respectively.

Turning to `COc1ccc(-c2c(Nc3ccc(OCCN4CCCC4)cc3)c3ccc(OC)cc3oc2=O)cc1`, the IC50 with MCF7 [1] is 6.51 µM; in the test on Ishikawa, 9.39 µM.

Take `COc1ccc(-c2c(Nc3ccc(OCCN4CCN(C)CC4)cc3)c3ccc(OC)cc3oc2=O)cc1`: the IC50 in the test on MCF7 [1] stood at 12.4 µM; with Ishikawa it was 15.2 µM.

For the compound `COc1ccc(-c2c(Nc3ccc(OCCN4CCOCC4)cc3)c3ccccc3oc2=O)cc1`, the RBA in test [3] worked out at 17%. Further, the IC50 stood at 47.5 µM with MCF7 [1] and 49.5 µM in the test on Ishikawa.

With `CCN(CC)CCOc1ccc(Nc2c(-c3ccc(OC)cc3)c(=O)oc3cc(OC)ccc23)cc1`, the IC50 amounted to 10.2 µM with MCF7 [1] and 8.84 µM in the test with Ishikawa.

With `COc1ccc(-c2c(Nc3ccc(OCCN4CCCCC4)cc3)c3ccccc3oc2=O)cc1`, the figures for the IC50 with MCF7 [1] and in the test on Ishikawa were 5.86 µM and 8.74 µM, respectively.

For `COc1ccc(-c2c(Nc3ccc(OCCN(C)C)cc3)c3ccc(O)cc3oc2=O)cc1`, the IC50 was found to be 9.53 µM in the test with MCF7 [1] and 13.2 µM with Ishikawa.

For the compound `COc1ccc(-c2c(Nc3ccc(OCCN4CCCC4)cc3)c3ccc(O)cc3oc2=O)cc1`, the values for the half-inhibitory concentration (IC50) with MCF7 [1] and in the test on Ishikawa were 8.42 µM and 11.8 µM, respectively.

Turning to `COc1ccc(-c2c(Nc3ccc(OCCN4CCOCC4)cc3)c3ccc(OC)cc3oc2=O)cc1`, in test [3], the RBA came out at 24%. In addition, the half-maximal inhibitory concentration (IC50) in the test on MCF7 [1] and in the test with Ishikawa was more than 100 µM each time.

Source of the values: ChEMBL document CHEMBL4024734, “Design, synthesis, biological evaluation and molecular docking studies of novel 3-aryl-4-anilino-2H-chromen-2-one derivatives targeting ERα as anti-breast cancer agents” (Bioorg Med Chem Lett, 2017).
